Assay results published in article doi:10.1101/2024.07.10.602960v2, “Contrasting Kinetics of Highly Similar Chloroalkane Reductive Dehalogenases” (biorxiv, 2024).
Where two headings read alike, the source gives them in different places.

Experiments:
[1] = tested on: T1, AcdA; test: GC-FID product formation in gas-tight syringe, […] min; Michaelis-Menten fit; assay type: biochemical, Dehalobacter sp.; conditions: 50 mM Tris-HCl pH 7.5, 1 mM methyl viologen, 5 mM Ti(III) citrate, anaerobic, 24 °C
T1 construct: expressed from p15TVL-acdA with pBAD42-BtuCEDFB in E. coli BL21(DE3) suf strain; partially purified; 48 kDa; cobamide and two iron-sulfur clusters

[2] = molecular target: T2, TmrA (Dehalobacter sp. UNSWDHB, UniProt T0I6H2); test: inhibition of chloroform dechlorination, GC-FID, […] min; single TCE concentration fit; assay type: biochemical; conditions: uncompetitive; chloroform as substrate, about 45 µM TCE, 50 mM Tris-HCl pH 7.5, 1 mM methyl viologen, Ti(III) citrate, 20 °C
T2 construct: expressed from p15TVL-tmrA with pBAD42-BtuCEDFB in E. coli BL21(DE3) suf strain; partially purified; 48 kDa; cobamide and two iron-sulfur clusters
T2 sequence (T0I6H2 51-456): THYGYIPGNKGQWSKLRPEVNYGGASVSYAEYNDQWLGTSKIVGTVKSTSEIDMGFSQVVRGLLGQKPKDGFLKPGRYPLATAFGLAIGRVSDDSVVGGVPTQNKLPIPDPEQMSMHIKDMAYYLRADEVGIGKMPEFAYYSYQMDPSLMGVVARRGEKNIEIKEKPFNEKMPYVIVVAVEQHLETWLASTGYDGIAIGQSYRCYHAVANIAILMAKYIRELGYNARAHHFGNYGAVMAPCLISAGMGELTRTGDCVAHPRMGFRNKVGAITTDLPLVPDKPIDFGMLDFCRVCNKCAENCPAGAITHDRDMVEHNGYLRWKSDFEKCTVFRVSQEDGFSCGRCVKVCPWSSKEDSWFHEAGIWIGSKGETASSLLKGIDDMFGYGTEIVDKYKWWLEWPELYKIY

[3] = molecular target: T3, CfrA (Dehalobacter sp. CF, UniProt K4LFB7); test: as above; assay type: biochemical; conditions: uncompetitive; chloroform as substrate, about […] TCE, […] Tris-HCl pH […] methyl viologen, Ti(III) citrate, […] °C
T3 construct: expressed from p15TVL-cfrA with pBAD42-BtuCEDFB in E. coli BL21(DE3) suf strain; partially purified; 48 kDa; cobamide and two iron-sulfur clusters
T3 sequence (K4LFB7 43-456 limits assumed): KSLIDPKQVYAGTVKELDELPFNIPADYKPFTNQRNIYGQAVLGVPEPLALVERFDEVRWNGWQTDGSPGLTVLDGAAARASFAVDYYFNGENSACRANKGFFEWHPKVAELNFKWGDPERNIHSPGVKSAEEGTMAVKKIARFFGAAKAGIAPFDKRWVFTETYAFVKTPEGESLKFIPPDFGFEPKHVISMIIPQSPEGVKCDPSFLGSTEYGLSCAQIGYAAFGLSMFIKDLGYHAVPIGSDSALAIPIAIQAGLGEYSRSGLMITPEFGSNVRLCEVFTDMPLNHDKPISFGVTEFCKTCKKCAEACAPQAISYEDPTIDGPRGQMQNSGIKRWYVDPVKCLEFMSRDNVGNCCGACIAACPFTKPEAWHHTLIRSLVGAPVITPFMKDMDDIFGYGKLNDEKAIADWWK

[4] = tested on: AcdA; conditions: 50 mM Tris-HCl pH 7.5, 1 mM methyl viologen, 5 mM Ti(III) citrate, anaerobic, 24 °C
[5] = molecular target: AcdA; conditions: 50 mM Tris-HCl pH 7.5, 1 mM methyl viologen, 5 mM Ti(III) citrate, anaerobic, 24 °C; substrate inhibition
[6] = molecular target: T2, TmrA; test: GC-FID, total consumption in gas-tight syringe, […] min; substrate-inhibition Michaelis-Menten fit; assay type: biochemical; conditions: 50 mM Tris-HCl pH 7.5, 1 mM methyl viologen, 5 mM Ti(III) citrate, anaerobic, 24 °C
[7] = molecular target: T1, AcdA; test: as above; assay type: biochemical, Dehalobacter sp.; conditions: 50 mM Tris-HCl pH 7.5, 1 mM methyl viologen, 5 mM Ti(III) citrate, anaerobic, 24 °C
[8] = tested on: T1, AcdA; test: as above; assay type: biochemical, Dehalobacter sp.; conditions: 50 mM Tris-HCl pH 7.5, 1 mM methyl viologen, 5 mM Ti(III) citrate, anaerobic, 24 °C; remark: listed apart in the source
[9] = molecular target: T4, CfrA (Dehalobacter sp. CF, UniProt K4LFB7); test: as above; assay type: biochemical; conditions: 50 mM Tris-HCl pH 7.5, 1 mM methyl viologen, 5 mM Ti(III) citrate, anaerobic, 24 °C
T4 construct: expressed from p15TVL-cfrA with pBAD42-BtuCEDFB in E. coli BL21(DE3) suf strain; partially purified; 48 kDa; cobamide and two iron-sulfur clusters

## CC(Cl)(Cl)Cl [1,1,1-trichloroethane]
[1]
  Km: 280 ± 100 µM

## ClC=C(Cl)Cl [trichloroethene]
[2]
  KI,TCE: All three enzymes showed better model fits with uncompetitive inhibition
[3]
  KI,TCE: All three enzymes showed better model fits with uncompetitive inhibition

## ClC(Cl)Cl [chloroform]
[4]
  Km: 29 ± 8 µM
[5]
  KI,CF: 0.61 ± 0.24 mM

## ClCC(Cl)Cl [1,1,2-trichloroethane]
[6]
  KI,TCA: 6.2 ± 3.7 mM
[7]
  KI,TCA: 2 ± 0.55 mM
[8]
  Km: 120 ± 20 µM
[9]
  KI,TCA: 7.1 ± 4.4 mM
